From ChEMBL document CHEMBL1129819, “Polysubstituted 2H-pyran-2-ones: A new class of hepatoprotective agents” (1997) come the findings set out here.

Common to all, as to type: functional
The species named for assay [1] is Rattus norvegicus. Briefly: Percent protection against thioacetamide-induced toxicity in rats using acid phosphatase(ACP). Set-up: concentration or dose not given beside the values.
Assay [2] relates to Rattus norvegicus. Put plainly: Percent protection against thioacetamide-induced toxicity in rats using alkaline phosphatase (ALP) when peroral administration of compound 6 mg/kg for 7 days. The note with it: route oral.
For assay [3], the system named is Rattus norvegicus. Briefly: Percent protection against thioacetamide-induced toxicity in rats using glutamate dehydrogenase (GIDH) when peroral administration of compound 6 mg/kg for 7 days. The note with it: route oral.
For assay [4], the system named is Rattus norvegicus. Briefly: Percent protection against thioacetamide-induced toxicity in rats using glutamate oxaloacetate transaminase (GOT) when peroral administration of compound 6 mg/kg for 7 days. The note with it: route oral.
Assay [5] relates to Rattus norvegicus. Briefly: Percent protection against thioacetamide-induced toxicity in rats using glutamate pyruvate transaminase (GPT) when peroral administration of compound 6 mg/kg for 7 days. The following applies: route oral.
Assay [6] has as its system Rattus norvegicus. Put plainly: Percent protection against thioacetamide-induced toxicity in rats using acid phosphatase(ACP) at peroral dose of 6 mg/kg for 7 days of compound. The following applies: route oral.
Assay [7] relates to Rattus norvegicus. Put plainly: Percent protection in paracetamol-induced model using glutamate pyruvate transaminase(GPT) when peroral administration of compound 6 mg/kg for 7 days. The following applies: route oral.
Assay [8] concerns Rattus norvegicus. Put plainly: Percent protection in carbon tetrachloride-induced model using alkaline phosphatase(ALP) when peroral administration of compound 6 mg/kg for 7 days. The following applies: route oral.
The subject of assay [9] is Rattus norvegicus. Briefly: Percent protection in carbon tetrachloride-induced model using glutamate dehydrogenase(GIDH) when peroral administration of compound 6 mg/kg for 7 days. The note with it: route oral.
In assay [10] the test system is Rattus norvegicus. Briefly: Percent protection in carbon tetrachloride-induced model using glutamate oxaloacetate transaminase(GOT) when peroral administration of compound 6 mg/kg for 7 days. The following applies: route oral.
Assay [11] deals with Rattus norvegicus. Briefly: Percent protection in carbon tetrachloride-induced model using glutamate pyruvate transaminase(GPT) when peroral administration of compound 6 mg/kg for 7 days. The following applies: route oral.
Assay [12] relates to Rattus norvegicus. Put plainly: Percent protection in galactosamine-induced model using alkaline phosphatase(ALP) when peroral administration of compound 6 mg/kg for 7 days. The following applies: route oral.
Assay [13] deals with Rattus norvegicus. Briefly: Percent protection in galactosamine-induced model using glutamate dehydrogenase(GIDH) when peroral administration of compound 6 mg/kg for 7 days. The following applies: route oral.
Assay [14] has as its system Rattus norvegicus. Briefly: Percent protection in galactosamine-induced model using glutamate oxaloacetate transaminase(GOT) when peroral administration of compound 6 mg/kg for 7 days. The note with it: route oral.
The test system of assay [15] is Rattus norvegicus. Put plainly: Percent protection in paracetamol-induced model using acid phosphatase(ACP) when peroral administration of compound 6 mg/kg for 7 days. The following applies: route oral.
In assay [16] the test system is Rattus norvegicus. Briefly: Percent protection in paracetamol-induced model using alkaline phosphatase(ALP) at peroral dose of 6 mg/kg for 7 days. The note with it: route oral.
Assay [17] concerns Rattus norvegicus. Briefly: Percent protection in paracetamol-induced model using glutamate dehydrogenase(GIDH) when peroral administration of compound 6 mg/kg for 7 days. The note with it: route oral.
Assay [18] deals with Rattus norvegicus. Put plainly: Percent protection in paracetamol-induced model using glutamate oxaloacetate transaminase(GOT) when peroral administration of compound 6 mg/kg for 7 days. The note with it: route oral.
Assay [19] has as its system Rattus norvegicus. Briefly: Percent protection in alcohol-induced model using acid phosphatase(ACP) at peroral dose of 6 mg/kg for 7 days. The following applies: route oral.
In assay [20] the test system is Rattus norvegicus. Put plainly: Percent protection in carbon tetrachloride-induced model using acid phosphatase(ACP) when peroral administration of compound 6 mg/kg for 7 days. The following applies: route oral.
Assay [21] concerns Rattus norvegicus. Briefly: Percent protection in alcohol-induced model using acid phosphatase(ACP) when peroral administration of compound 12 mg/kg for 7 days. The following applies: route oral.
Assay [22] has as its system Rattus norvegicus. Briefly: Percent protection in alcohol-induced model using alkaline phosphatase(ALP) when peroral administration of compound 12 mg/kg for 7 days. The note with it: route oral.
In assay [23] the test system is Rattus norvegicus. Put plainly: Percent protection in alcohol-induced model using alkaline phosphatase(ALP) when peroral administration of compound 6 mg/kg for 7 days. The following applies: route oral.
The subject of assay [24] is Rattus norvegicus. Briefly: Percent protection in alcohol-induced model using glutamate dehydrogenase(GIDH) when peroral administration of compound 12 mg/kg for 7 days. The following applies: route oral.
For assay [25], the system named is Rattus norvegicus. Briefly: Percent protection in alcohol-induced model using glutamate dehydrogenase(GIDH) when peroral administration of compound 6 mg/kg for 7 days. The following applies: route oral.
For assay [26], the system named is Rattus norvegicus. Put plainly: Percent protection in alcohol-induced model using glutamate oxaloacetate transaminase(GOT) when peroral administration of compound 12 mg/kg for 7 days. The note with it: route oral.
In assay [27] the test system is Rattus norvegicus. Briefly: Percent protection in alcohol-induced model using glutamate oxaloacetate transaminase(GOT) when peroral administration of compound 6 mg/kg for 7 days. The note with it: route oral.
Assay [28] relates to Rattus norvegicus. Put plainly: Percent protection in alcohol-induced model using glutamate pyruvate transaminase(GPT) at peroral dose of 12 mg/kg for 7 days. The following applies: route oral.
Assay [29] has as its system Rattus norvegicus. Briefly: Percent protection in alcohol-induced model using glutamate pyruvate transaminase(GPT) when peroral administration of compound 6 mg/kg for 7 days. The following applies: route oral.
The test system of assay [30] is Rattus norvegicus. Briefly: Percent protection in galactosamine-induced model using glutamate pyruvate transaminase(GPT) when peroral administration of compound 6 mg/kg for 7 days. The following applies: route oral.

For `CSc1cc(-c2ccc(Br)cc2)oc(=O)c1Br`, the Protection in the assay filed under Rattus norvegicus [1] worked out at 72%; in the assay with Rattus norvegicus [2], 15%; with Rattus norvegicus [3], 28%; with Rattus norvegicus [4], 47%; in the assay with Rattus norvegicus [5] it was 18%.
As to `CSc1cc(-c2ccc(Br)cc2)oc(=O)c1Cl`, the Protection in the assay on Rattus norvegicus [6] is reported as 30%; in the assay on Rattus norvegicus [2] it was 19%; with Rattus norvegicus [3] it was 26%; with Rattus norvegicus [4] it was 30%; with Rattus norvegicus [5], 40%.
Regarding `CSc1cc(-c2cccnc2)oc(=O)c1C#N`, the Protection is given as 38% in the assay listed under Rattus norvegicus [1]; 0% with Rattus norvegicus [2]; 51% in the assay on Rattus norvegicus [3]; 12% in the assay with Rattus norvegicus [4]; 12% in the assay with Rattus norvegicus [5].
As for `CSc1cc(-c2ccc(Cl)cc2)oc(=O)c1C(N)=O`, the Protection in the assay listed under Rattus norvegicus [1] was found to be 10%; in the assay with Rattus norvegicus [2] it was 17%; with Rattus norvegicus [3], 0%; in the assay with Rattus norvegicus [4], 16%; with Rattus norvegicus [5] it was 15%.
Regarding `CSc1cc(-c2ccc(Cl)cc2)oc(=S)c1Br`, the Protection in the assay listed under Rattus norvegicus [1] came out at 0%; in the assay on Rattus norvegicus [2], 36%; in the assay on Rattus norvegicus [3], 20%; in the assay on Rattus norvegicus [4], 25%; in the assay on Rattus norvegicus [5], 0%.
In the case of `CSc1cc(-c2ccncc2)oc(=O)c1Br`, the Protection in the assay listed under Rattus norvegicus [1] is given as 53%; in the assay with Rattus norvegicus [2], 12%; in the assay with Rattus norvegicus [3], 16%; in the assay with Rattus norvegicus [4], 48%; with Rattus norvegicus [5] it was 0%.
Take `CSc1cc(-c2ccc(F)cc2)oc(=O)c1`: the Protection is 46% in the assay listed under Rattus norvegicus [1]; 30% in the assay on Rattus norvegicus [2]; 15% with Rattus norvegicus [3]; 59% with Rattus norvegicus [4]; 57% with Rattus norvegicus [5].
For `CSc1cc(-c2ccc(Cl)cc2)oc(=O)c1Br`, in that order: 48%, 100%, 51%, 70% and 80%.
In the case of `CSc1cc(-c2ccc(Cl)cc2)oc(=O)c1`, the Protection with Rattus norvegicus [6] worked out at 24%; with Rattus norvegicus [2] it was 42%; in the assay with Rattus norvegicus [3], 43%; in the assay with Rattus norvegicus [4] it was 46%; in the assay on Rattus norvegicus [5], 51%.
As to `CCOC(=O)c1c(SC)c(C#N)c(-c2ccc(Br)cc2)oc1=O`, the Protection in the assay filed under Rattus norvegicus [1] came to 2%; in the assay with Rattus norvegicus [2], 0%; in the assay with Rattus norvegicus [3], 2%; in the assay with Rattus norvegicus [4] it was 0%; with Rattus norvegicus [5] it was 0%.
`CSc1cc(-c2ccc(Br)cc2)oc(=O)c1C#N`: the Protection in the assay listed under Rattus norvegicus [1] is reported as 38%; in the assay on Rattus norvegicus [2] it was 56%; in the assay with Rattus norvegicus [3], 40%; in the assay on Rattus norvegicus [4], 20%; with Rattus norvegicus [5], 10%.
In the case of `CCOC(=O)c1c(SC)cc(-c2ccc(Cl)cc2)oc1=O`, the Protection is 0% with Rattus norvegicus [6]; 11% in the assay with Rattus norvegicus [2]; 17% in the assay on Rattus norvegicus [3]; 23% with Rattus norvegicus [4]; 31% in the assay with Rattus norvegicus [5].
Turning to `CSc1cc(-c2ccncc2)oc(=O)c1C#N`, the Protection is reported as 0% in the assay on Rattus norvegicus [6]; 12% with Rattus norvegicus [2]; 0% with Rattus norvegicus [3]; 0% in the assay with Rattus norvegicus [4]; 0% with Rattus norvegicus [5].
In the case of `CSc1cc(-c2ccco2)oc(=O)c1C#N`, the Protection in the assay filed under Rattus norvegicus [1] came to 0%; with Rattus norvegicus [2], 19%; in the assay on Rattus norvegicus [3], 15%; with Rattus norvegicus [4] it was 71%; with Rattus norvegicus [5], 72%.
The like results for `CSc1cc(-c2cccs2)oc(=O)c1C#N` were, in that order, 10%, 33%, 100%, 37% and 74%.
For the molecule `CSc1cc(-c2ccc(Cl)cc2)oc(=O)c1Cl`, the Protection is recorded as 38% with Rattus norvegicus [6]; 40% with Rattus norvegicus [2]; 27% in the assay on Rattus norvegicus [3]; 36% with Rattus norvegicus [4]; 51% in the assay on Rattus norvegicus [5].
As to `CSc1cc(-c2ccc(F)cc2)oc(=O)c1C#N`, the Protection in the assay filed under Rattus norvegicus [1] worked out at 46%; in the assay with Rattus norvegicus [2], 15%; in the assay with Rattus norvegicus [3] it was 0%; in the assay with Rattus norvegicus [4], 20%; in the assay with Rattus norvegicus [5], 31%.
The like results for `CSc1cc(-c2ccc(Cl)cc2Cl)oc(=O)c1C#N` were, in that order, 61%, 33%, 65%, 37% and 45%.
For `CSc1cc(-c2ccc(F)cc2)oc(=O)c1Br`, the Protection is 49% in the assay with Rattus norvegicus [6]; 43% in the assay on Rattus norvegicus [2]; 0% in the assay on Rattus norvegicus [3]; 0% in the assay on Rattus norvegicus [4]; 0% in the assay with Rattus norvegicus [5].
On to `CSc1cc(-c2cccs2)oc(=O)c1Br`, for which the Protection in the assay filed under Rattus norvegicus [1] came out at 25%; with Rattus norvegicus [2], 37%; in the assay on Rattus norvegicus [3], 4%; in the assay with Rattus norvegicus [4], 50%; with Rattus norvegicus [5], 55%.
For `CCOC(=O)c1c(SC)c(C#N)c(-c2ccc(Cl)cc2)oc1=O`, in that order: 30%, 0%, 16%, 14% and 19%.
For `CSc1cc(-c2ccc(Cl)cc2)oc(=S)c1Cl`, in that order: 25%, 10%, 12%, 29% and 26%.
With `COc1cc([C@H]2Oc3cc([C@H]4Oc5cc(O)cc(O)c5C(=O)[C@@H]4O)ccc3O[C@@H]2CO)ccc1O` [SILYBIN A], the Protection with Rattus norvegicus [7] was determined as 49%; in the assay on Rattus norvegicus [8] it was 51%; with Rattus norvegicus [9] it was 51%; with Rattus norvegicus [10] it was 48%; with Rattus norvegicus [11] it was 64%; in the assay on Rattus norvegicus [12], 33%. For the same molecule, the Protection in the assay on Rattus norvegicus [13] is 65%; in the assay with Rattus norvegicus [14] it was 47%; in the assay on Rattus norvegicus [15], 67%; in the assay with Rattus norvegicus [16], 50%; in the assay on Rattus norvegicus [17] it was 60%; in the assay with Rattus norvegicus [18] it was 46%. The Protection is 43.25% in the assay on Rattus norvegicus [6]; 61% in the assay filed under Rattus norvegicus [1]; 47% in the assay with Rattus norvegicus [2]; 38.81% in the assay with Rattus norvegicus [3]; 50.14% with Rattus norvegicus [4]; 47.25% with Rattus norvegicus [5]. Moreover, the Protection in the assay with Rattus norvegicus [19] was 49%; with Rattus norvegicus [20], 57%; in the assay on Rattus norvegicus [21], 64%; in the assay on Rattus norvegicus [22] it was 77%; with Rattus norvegicus [23] it was 62%; in the assay on Rattus norvegicus [24] it was 59%. Also, the Protection is on record as 49% in the assay on Rattus norvegicus [25]; 62% in the assay with Rattus norvegicus [26]; 43% with Rattus norvegicus [27]; 78% in the assay with Rattus norvegicus [28]; 59% in the assay with Rattus norvegicus [29]; 45% in the assay with Rattus norvegicus [30].
